Experimental data published in US20240423992A1, “BIOMARKERS FOR TREATING LIVER DISORDERS WITH THR-B AGONISTS AND RELATED USES” (Madrigal Pharmaceuticals, Inc., priority 2023, published 2024).

Legend:
[1] = tested on: patients with Nonalcoholic Steatohepatitis; test: Phase 3 trial in Nonalcoholic Steatohepatitis (Example 2): sex hormone levels; format: in vivo, human; settings: for Estradiol (female) LS Mean Difference / Estradiol (male) LS Mean Difference / FSH (female) LS Mean Difference / FSH (male) LS Mean Difference / Free testosterone (female) LS Mean Difference / Free testosterone (male) LS Mean Difference / LH (female) LS Mean Difference / LH (male) LS Mean Difference / SHBG (female) LS Mean Difference in % CFB / SHBG (female) LS Mean Difference in CFB / SHBG (male) LS Mean Difference in % CFB / SHBG (male) LS Mean Difference in CFB / SHBG LS Mean Difference in % CFB / SHBG LS Mean Difference in CFB / Testosterone (female) LS Mean Difference / Testosterone (male) LS Mean Difference / Estradiol (female) LS Mean CFB (SE) / Estradiol (male) LS Mean CFB (SE) / FSH (female) LS Mean CFB (SE) / FSH (male) LS Mean CFB (SE) / Free testosterone (female) LS Mean CFB (SE) / Free testosterone (male) LS Mean CFB (SE) / LH (female) LS Mean CFB (SE) / LH (male) LS Mean CFB (SE) / SHBG (female) LS Mean % CFB (SE) / SHBG (female) LS Mean CFB (SE) / SHBG (male) LS Mean % CFB (SE) / SHBG (male) LS Mean CFB (SE) / SHBG LS Mean % CFB (SE) / SHBG LS Mean CFB (SE) / Testosterone (female) LS Mean CFB (SE) / Testosterone (male) LS Mean CFB (SE): Week 52
Method: A randomized, double-blind, placebo-controlled Phase 3 trial was conducted. Patients were randomly assigned to receive resmetirom 80 mg, resmetirom 100 mg, or placebo administered orally once daily. Screening biopsy results were used as baseline for histologic variables and a second biopsy was performed at Week 52.

[2] = tested on: adults with nonalcoholic fatty liver disease (NAFLD)/presumed nonalcoholic steatohepatitis (NASH); test: 52-week Phase 3 trial (Example 1): liver volume, open-label arm; format: in vivo, human; settings: for Liver volume, mean reduction from baseline: open-label 100 mg resmetirom arm
Method: A 52-week randomized, double-blind, placebo-controlled Phase 3 trial was conducted to evaluate the safety and effect of resmetirom, an oral, once-daily, liver-targeted thyroid hormone receptor-β selective agonist, on multiple biomarkers in adults with nonalcoholic fatty liver disease (NAFLD)/presumed nonalcoholic steatohepatitis (NASH). Patients were randomized to three double-blind arms (100 mg resmetirom, 80 mg resmetirom, or placebo) or one open-label arm (100 mg resmetirom). Common concomitant medications across the 4 arms were antidiabetes drugs (such as glucagon-like peptide-1 receptor agonists (GLP-1 RAs), metformin, pioglitazone, and sodium/glucose cotransporter-2 inhibitors (SGLT2i)) and drugs to manage dyslipidemia (statins).
Liver volume was evaluated in the open-label 100 mg resmetirom arm at Week 52. Liver volume was reduced from baseline by a mean of 21% and 23% following 16 and 52 weeks of resmetirom treatment, respectively (FIGS. 3A and 3B). […] Correcting hepatic fat reduction for reduced liver volume led to an average hepatic fat reduction of 61% in the open-label arm.

Q: CC(C)c1cc(Oc2c(Cl)cc(-n3nc(C#N)c(=O)[nH]c3=O)cc2Cl)n[nH]c1=O [Resmetirom, 2-[3,5-dichloro-4-[(6-oxo-5-propan-2-yl-1H-pyridazin-3-yl)oxy]phenyl]-3,5-dioxo-1,2,4-triazine-6-carbonitrile] was tested. Which “Estradiol (female) LS Mean Difference” value ([1]; Resmetirom 80 mg from PBO) did it give?
A: The value was 15.9 ng/L.

Q: What about the “Estradiol (male) LS Mean Difference” value ([1]; Resmetirom 80 mg from PBO) of the same compound?
A: The value was 9.0 ng/L.

Q: And the “FSH (female) LS Mean Difference” value ([1]; Resmetirom 80 mg from PBO)?
A: Its value is 0.79 mIU/mL.

Q: What about the “FSH (male) LS Mean Difference” value ([1]; Resmetirom 80 mg from PBO) of the same compound?
A: The value was 1.1 mIU/mL.

Q: What about the “Free testosterone (female) LS Mean Difference” value ([1]; Resmetirom 80 mg from PBO) of the same compound?
A: Its value is 0 nmol/L.

Q: What about the “Free testosterone (male) LS Mean Difference” value ([1]; Resmetirom 80 mg from PBO) of the same compound?
A: The value was 0.02 nmol/L.

Q: And the “LH (female) LS Mean Difference” value ([1]; Resmetirom 80 mg from PBO)?
A: The value was −0.33 mIU/mL.

Q: What about the “LH (male) LS Mean Difference” value ([1]; Resmetirom 80 mg from PBO) of the same compound?
A: Its value is 1.8 mIU/mL.

Q: What about the “SHBG (female) LS Mean Difference in % CFB” value ([1]; Resmetirom 80 mg from PBO) of the same compound?
A: Its value is 177.4%.

Q: And the “SHBG (female) LS Mean Difference in CFB” value ([1]; Resmetirom 80 mg from PBO)?
A: Its value is 73.3 nmol/L.

Q: And the “SHBG (male) LS Mean Difference in % CFB” value ([1]; Resmetirom 80 mg from PBO)?
A: Its value is 107.3%.

Q: What about the “SHBG (male) LS Mean Difference in CFB” value ([1]; Resmetirom 80 mg from PBO) of the same compound?
A: Its value is 40.4 nmol/L.

Q: What about the “SHBG LS Mean Difference in % CFB” value ([1]; Resmetirom 80 mg from PBO) of the same compound?
A: The value was 148.5%.

Q: What about the “SHBG LS Mean Difference in CFB” value ([1]; Resmetirom 80 mg from PBO) of the same compound?
A: The value was 58.9 nmol/L.

Q: And the “Testosterone (female) LS Mean Difference” value ([1]; Resmetirom 80 mg from PBO)?
A: The value was 0.15 µg/L.

Q: And the “Testosterone (male) LS Mean Difference” value ([1]; Resmetirom 80 mg from PBO)?
A: Its value is 2.2 µg/L.

Q: And the “Estradiol (female) LS Mean CFB (SE)” value ([1]; Resmetirom 80 mg)?
A: The value was 17.7 (8.0) ng/L.

Q: And the “Estradiol (male) LS Mean CFB (SE)” value ([1]; Resmetirom 80 mg)?
A: The value was 8.9 (1.3) ng/L.

Q: What about the “FSH (female) LS Mean CFB (SE)” value ([1]; Resmetirom 80 mg) of the same compound?
A: Its value is −0.54 (0.89) mIU/mL.

Q: And the “FSH (male) LS Mean CFB (SE)” value ([1]; Resmetirom 80 mg)?
A: The value was 1.1 (0.24) mIU/mL.

Q: And the “Free testosterone (female) LS Mean CFB (SE)” value ([1]; Resmetirom 80 mg)?
A: The value was 0 (0.001) nmol/L.

Q: What about the “Free testosterone (male) LS Mean CFB (SE)” value ([1]; Resmetirom 80 mg) of the same compound?
A: The value was 0.04 (0.009) nmol/L.

Q: What about the “LH (female) LS Mean CFB (SE)” value ([1]; Resmetirom 80 mg) of the same compound?
A: Its value is −0.93 (0.69) mIU/mL.

Q: What about the “LH (male) LS Mean CFB (SE)” value ([1]; Resmetirom 80 mg) of the same compound?
A: Its value is 1.7 (0.30) mIU/mL.

Q: And the “SHBG (female) LS Mean % CFB (SE)” value ([1]; Resmetirom 80 mg)?
A: Its value is 193.0 (15.3) %.

Q: What about the “SHBG (female) LS Mean CFB (SE)” value ([1]; Resmetirom 80 mg) of the same compound?
A: The value was 74.1 (6.0) nmol/L.

Q: What about the “SHBG (male) LS Mean % CFB (SE)” value ([1]; Resmetirom 80 mg) of the same compound?
A: Its value is 108.0 (11.2) %.

Q: What about the “SHBG (male) LS Mean CFB (SE)” value ([1]; Resmetirom 80 mg) of the same compound?
A: The value was 41.9 (4.2) nmol/L.

Q: What about the “SHBG LS Mean % CFB (SE)” value ([1]; Resmetirom 80 mg) of the same compound?
A: The value was 157.5 (10.2) %.

Q: And the “SHBG LS Mean CFB (SE)” value ([1]; Resmetirom 80 mg)?
A: Its value is 60.2 (4.0) nmol/L.

Q: And the “Testosterone (female) LS Mean CFB (SE)” value ([1]; Resmetirom 80 mg)?
A: The value was 0.15 (0.019) ug/L.

Q: And the “Testosterone (male) LS Mean CFB (SE)” value ([1]; Resmetirom 80 mg)?
A: The value was 2.6 (0.26) ug/L.

Q: What about the “Estradiol (female) LS Mean Difference” value ([1]; Resmetirom 100 mg from PBO) of the same compound?
A: The value was 28.8 ng/L.

Q: What about the “Estradiol (male) LS Mean Difference” value ([1]; Resmetirom 100 mg from PBO) of the same compound?
A: The value was 11.2 ng/L.

Q: What about the “FSH (female) LS Mean Difference” value ([1]; Resmetirom 100 mg from PBO) of the same compound?
A: The value was 2.0 mIU/mL.

Q: What about the “FSH (male) LS Mean Difference” value ([1]; Resmetirom 100 mg from PBO) of the same compound?
A: The value was 1.7 mIU/mL.

Q: What about the “Free testosterone (female) LS Mean Difference” value ([1]; Resmetirom 100 mg from PBO) of the same compound?
A: The value was 0 nmol/L.

Q: And the “Free testosterone (male) LS Mean Difference” value ([1]; Resmetirom 100 mg from PBO)?
A: Its value is 0.01 nmol/L.

Q: What about the “LH (female) LS Mean Difference” value ([1]; Resmetirom 100 mg from PBO) of the same compound?
A: Its value is 1.4 mIU/mL.

Q: And the “LH (male) LS Mean Difference” value ([1]; Resmetirom 100 mg from PBO)?
A: Its value is 2.0 mIU/mL.

Q: And the “SHBG (female) LS Mean Difference in % CFB” value ([1]; Resmetirom 100 mg from PBO)?
A: The value was 236.2%.

Q: What about the “SHBG (female) LS Mean Difference in CFB” value ([1]; Resmetirom 100 mg from PBO) of the same compound?
A: Its value is 93.2 nmol/L.

Q: And the “SHBG (male) LS Mean Difference in % CFB” value ([1]; Resmetirom 100 mg from PBO)?
A: Its value is 173.3%.

Q: What about the “SHBG (male) LS Mean Difference in CFB” value ([1]; Resmetirom 100 mg from PBO) of the same compound?
A: Its value is 59.3 nmol/L.

Q: What about the “SHBG LS Mean Difference in % CFB” value ([1]; Resmetirom 100 mg from PBO) of the same compound?
A: The value was 208.4%.

Q: And the “SHBG LS Mean Difference in CFB” value ([1]; Resmetirom 100 mg from PBO)?
A: Its value is 79.4 nmol/L.

Q: What about the “Testosterone (female) LS Mean Difference” value ([1]; Resmetirom 100 mg from PBO) of the same compound?
A: The value was 0.19 µg/L.

Q: And the “Testosterone (male) LS Mean Difference” value ([1]; Resmetirom 100 mg from PBO)?
A: The value was 3.0 µg/L.

Q: And the “Estradiol (female) LS Mean CFB (SE)” value ([1]; Resmetirom 100 mg)?
A: The value was 30.6 (8.3) ng/L.

Q: And the “Estradiol (male) LS Mean CFB (SE)” value ([1]; Resmetirom 100 mg)?
A: Its value is 11.0 (1.3) ng/L.

Q: And the “FSH (female) LS Mean CFB (SE)” value ([1]; Resmetirom 100 mg)?
A: Its value is 0.63 (0.92) mIU/mL.

Q: What about the “FSH (male) LS Mean CFB (SE)” value ([1]; Resmetirom 100 mg) of the same compound?
A: The value was 1.7 (0.24) mIU/mL.

Q: And the “Free testosterone (female) LS Mean CFB (SE)” value ([1]; Resmetirom 100 mg)?
A: Its value is 0 (0.001) nmol/L.

Q: And the “Free testosterone (male) LS Mean CFB (SE)” value ([1]; Resmetirom 100 mg)?
A: The value was 0.03 (0.009) nmol/L.

Q: And the “LH (female) LS Mean CFB (SE)” value ([1]; Resmetirom 100 mg)?
A: Its value is 0.80 (0.72) mIU/mL.

Q: And the “LH (male) LS Mean CFB (SE)” value ([1]; Resmetirom 100 mg)?
A: The value was 1.9 (0.30) mIU/mL.

Q: And the “SHBG (female) LS Mean % CFB (SE)” value ([1]; Resmetirom 100 mg)?
A: Its value is 251.8 (16.0) %.

Q: And the “SHBG (female) LS Mean CFB (SE)” value ([1]; Resmetirom 100 mg)?
A: Its value is 94.0 (6.3) nmol/L.

Q: What about the “SHBG (male) LS Mean % CFB (SE)” value ([1]; Resmetirom 100 mg) of the same compound?
A: The value was 174.0 (10.9) %.

Q: What about the “SHBG (male) LS Mean CFB (SE)” value ([1]; Resmetirom 100 mg) of the same compound?
A: Its value is 60.8 (4.1) nmol/L.

Q: And the “SHBG LS Mean % CFB (SE)” value ([1]; Resmetirom 100 mg)?
A: The value was 217.4 (10.3) %.

Q: What about the “SHBG LS Mean CFB (SE)” value ([1]; Resmetirom 100 mg) of the same compound?
A: Its value is 80.7 (4.1) nmol/L.

Q: What about the “Testosterone (female) LS Mean CFB (SE)” value ([1]; Resmetirom 100 mg) of the same compound?
A: Its value is 0.19 (0.020) ug/L.

Q: What about the “Testosterone (male) LS Mean CFB (SE)” value ([1]; Resmetirom 100 mg) of the same compound?
A: The value was 3.5 (0.25) ug/L.

Q: What about the “Change in sex hormones from baseline” value ([1]; in vivo) of the same compound?
A: Its value is “unchanged, except for SHBG increases”.

Q: And the “Liver volume in patient subgroups” value ([2]; all key patient subgroups of the OL arm)?
A: Its value is “reductions in liver volume were observed”.

Q: What about the “Liver volume, mean reduction from baseline” value ([2]; 16 weeks) of the same compound?
A: The value was 21%.

Q: What about the “Liver volume, mean reduction from baseline” value ([2]; 52 weeks) of the same compound?
A: The value was 23%.

Q: And the “average hepatic fat reduction corrected for reduced liver volume” value ([2]; open-label arm)?
A: Its value is 61%.
